Patent US10994016B2, “Graphene oxide mediated cellular delivery of gadolinium-labeled molecules” (Northwestern University, priority 2015, dated 2021)

Test system: HeLa cells
Assay: Cellular delivery studies with and without GO co-incubation, HeLa
Type: cell-based
Protocol: ICP-MS Samples were prepared in 15-mL conical tubes by adding ACS reagent grade nitric acid (70%), followed by incubation at 70° C. overnight to allow for complete sample digestion. The effectiveness of this digestion protocol was previously validated for GO. After incubation, a multi-element internal standard (containing Bi, Ho, In, Li, Sc, Tb, and Y, Inorganic Ventures, Christiansburg, Va.) and milli-Q water (18.2 MΩ·cm) were added to produce a final sample of 3% (v/v) nitric acid and 5 ng/mL internal standard.
ICP-MS was performed on a computer-controlled (Plasmalab software) Thermo X series II ICP-MS (Thermo Fisher Scientific, Waltham, Mass., USA) operating in standard mode equipped with an ESI SC-2 autosampler (Omaha, Nebr., USA). Each sample was acquired using 1 survey run (10 sweeps) and 3 main (peak jumping) runs (100 sweeps). The isotopes selected for analysis were Gd with In and Ho isotopes selected as internal standards for data interpolation. Instrument performance is optimized daily through an autotune followed by verification via a performance report (passing manufacturer specifications). Instrument calibration was accomplished by preparing individual-element Gd standards (Inorganic Ventures, Christiansburg, Va., USA) using concentrations of 0.78125, 1.5625, 3.125, 6.25, 12.50, 25.00, 50.00, 100.0, and 200.0 ng/mL containing 3.0% nitric acid (v/v) and 5.0 ng/mL of multi-element internal standard.
Dulbecco's modified phosphate buffered saline (DPBS), media, and dissociation reagents were purchased from Life Technologies (Carlsbad, Calif.). CorningBrand® cell culture consumables (flasks, plates, etc.) and sera were purchased from VWR Scientific (Radnor, Pa.). HeLa cells (ATCC® CCL-2™) and KB cells (ATCC® CCL-17™) were purchased from the American Type Culture Collection (ATCC, Manassas, Va.) and cultured in phenol red-free minimum essential media (MEM) supplemented with 10% fetal bovine serum (FBS). Prior to all experiments, cells were plated and allowed to incubate for 24 hours before dosing. Cells were harvested with 0.25% TrypLE for 5 minutes at 37° C. in a 5.0% CO2 incubator. For sterilization, all Gd(III)-labeled molecules were filtered with 0.2 μm sterile filters prior to concentration determination and storage at 4° C. GO was used as prepared without further sterilization. […] Cells were grown in a humidified incubator operating at 37° C. and 5.0% CO2.
Cell counting was conducted using a Guava EasyCyte Mini Personal Cell Analyzer (EMD Millipore, Billerica, Mass.). After cell harvesting, an aliquot (50 μL) of the cell suspensions was mixed with Guava ViaCount reagent (150 μL) and allowed to stain at room temperature for at least 5 minutes. The dilution factor of 4 was determined based upon optimum machine performance (20-150 cells/μL). After vortexing for 10 sec, stained cells were counted using a Guava EasyCyte Mini Personal Cell Analyzer (PCA) using the ViaCount software module. For each sample, 1000 events were acquired. Gating of live/dead and cell/debris classifications were performed manually by the operator.
Cellular delivery studies were performed with HeLa and KB cells. HeLa and KB were plated at a cell density of approximately 25,000 and 50,000 cells per well, respectively, in a 24-well plate as counted by a hemocytometer. Stock solutions of 1-14 (1 mM), 150 nm GO (100 μg/mL), and 1500 nm GO (100 μg/mL) were prepared using sterile Milli-Q water. Prior to dosing, 80 μL ([…]) of each GO (150 nm and 1500 nm) and 80 μL (80 nmol) of each Gd(III)-labeled molecule (1-14) were mixed and allowed to adsorb for at least 15 minutes. 150 μL Gd(III)-GO solutions were added to 250 μL media to give a final concentration of 188 μM Gd and 18.8 μg/mL GO. Cells were incubated with the mixture of Gd(III)-labeled molecules and GO for […]. To harvest, cells were rinsed in-plate three times with 500 μL PBS and trypsinized using 100 μL 0.25% TrypLE. […]

## Diethylenetriaminepentaacetic acid gadolinium(III) dihydrogen salt hydrate [Molecule 11]
35 mM Magnevist, 20 μg/mL GO, 24-well plates
  Enhancement by GO: 3.3 ×
6-well plates
  Enhancement by GO: 3.1 ×
150 nm GO, mixture added directly to media
  Delivery enhancement without adsorption time: abolished
1500 nm GO, 188 μM Gd(III), 18.8 μg/mL GO
  Delivery enhancement without adsorption time: same result
With GO, 35 mM Magnevist, 20 μg/mL GO (150 nm), 17 trials
  Magnevist uptake: 515±319 fmol Gd/cell
With GO, 35 mM Magnevist, 20 μg/mL GO, 24-well plates, N=11
  Typical cellular Gd(III) content: 299±67 fmol/cell
With GO, 6-well plates, N=13
  Loading (cellular Gd(III) content): 151±56 fmol/cell
Without GO, 35 mM Magnevist, 10 trials
  Magnevist uptake: 115±32 fmol Gd/cell
Without GO, 35 mM Magnevist, 24-well plates, N=4
  Typical cellular Gd(III) content: 91±9 fmol/cell
Without GO, 6-well plates, N=4
  Loading (cellular Gd(III) content): 49±19 fmol/cell
